According to PubChem BioAssay (NCI):
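Five concentrations, 48 hours, 96-well plates. TGI is the concentration that stops growth completely.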

Key:
Experiment in all cases: inhibition of tumour cell growth, NCI panel, 48 h
SR leukemia = tested on: SR leukemia
MDA-N = tested on: MDA-N
HOP-62 NSCLC = tested on: HOP-62 NSCLC
MALME-3M melanoma = tested on: MALME-3M melanoma
IGROV1 ovarian = tested on: IGROV1 ovarian
A498 renal = tested on: A498 renal
HOP-92 NSCLC = tested on: HOP-92 NSCLC
DU-145 prostate = tested on: DU-145 prostate
MDA-MB-435 = tested on: MDA-MB-435
BT-549 breast = tested on: BT-549 breast
SK-OV-3 ovarian = tested on: SK-OV-3 ovarian
COLO 205 colon = tested on: COLO 205 colon
SK-MEL-28 melanoma = tested on: SK-MEL-28 melanoma
NCI-H522 lung = tested on: NCI-H522 lung
CCRF-CEM leukemia = tested on: CCRF-CEM leukemia
TK-10 renal = tested on: TK-10 renal
SF-268 CNS = tested on: SF-268 CNS
HT29 colon = tested on: HT29 colon
SNB-75 CNS = tested on: SNB-75 CNS
MOLT-4 leukemia = tested on: MOLT-4 leukemia
SN12C renal = tested on: SN12C renal
OVCAR-3 ovarian = tested on: OVCAR-3 ovarian
HCT-116 colon = tested on: HCT-116 colon
UO-31 renal = tested on: UO-31 renal
NCI-H460 lung = tested on: NCI-H460 lung
OVCAR-5 ovarian = tested on: OVCAR-5 ovarian
UACC-257 melanoma = tested on: UACC-257 melanoma
K-562 leukemia = tested on: K-562 leukemia
M14 melanoma = tested on: M14 melanoma
SNB-19 CNS = tested on: SNB-19 CNS
SF-295 CNS = tested on: SF-295 CNS
UACC-62 melanoma = tested on: UACC-62 melanoma
OVCAR-4 ovarian = tested on: OVCAR-4 ovarian
SW-620 colon = tested on: SW-620 colon
OVCAR-8 ovarian = tested on: OVCAR-8 ovarian
EKVX NSCLC = tested on: EKVX NSCLC
NCI-H23 lung = tested on: NCI-H23 lung
LOX IMVI melanoma = tested on: LOX IMVI melanoma
786-0 renal = tested on: 786-0 renal
PC-3 prostate = tested on: PC-3 prostate
MCF7 breast = tested on: MCF7 breast
RXF 393 renal = tested on: RXF 393 renal
HCC-2998 colon = tested on: HCC-2998 colon
SK-MEL-2 melanoma = tested on: SK-MEL-2 melanoma
U251 CNS = tested on: U251 CNS
HS 578T breast = tested on: HS 578T breast
CAKI-1 renal = tested on: CAKI-1 renal
MDA-MB-231 breast = tested on: MDA-MB-231 breast
KM12 colon = tested on: KM12 colon
ACHN renal = tested on: ACHN renal
HCT-15 colon = tested on: HCT-15 colon
SF-539 CNS = tested on: SF-539 CNS
RPMI-8226 leukemia = tested on: RPMI-8226 leukemia
SK-MEL-5 melanoma = tested on: SK-MEL-5 melanoma
T-47D breast = tested on: T-47D breast
NCI/ADR-RES ovarian = tested on: NCI/ADR-RES ovarian
HL-60(TB) leukemia = tested on: HL-60(TB) leukemia
A549 NSCLC = tested on: A549 NSCLC

SMILES: COC(=O)c1sc(=S)sc1SCc1cccc(CSc2sc(=S)sc2C(=O)OC)c1
- TGI (SR leukemia): > 100 µM
- TGI (MDA-N): > 100 µM
- TGI (HOP-62 NSCLC): 67.1 µM
- TGI (MALME-3M melanoma): > 100 µM
- TGI (IGROV1 ovarian): > 100 µM
- TGI (A498 renal): 62.2 µM
- TGI (HOP-92 NSCLC): 71.2 µM
- TGI (DU-145 prostate): > 100 µM
- TGI (MDA-MB-435): > 100 µM
- TGI (BT-549 breast): 94.1 µM
- TGI (SK-OV-3 ovarian): 51.3 µM
- TGI (COLO 205 colon): > 100 µM
- TGI (SK-MEL-28 melanoma): > 100 µM
- TGI (NCI-H522 lung): > 100 µM
- TGI (CCRF-CEM leukemia): > 100 µM
- TGI (TK-10 renal): 96.9 µM
- TGI (SF-268 CNS): > 100 µM
- TGI (HT29 colon): > 100 µM
- TGI (SNB-75 CNS): 26.6 µM
- TGI (MOLT-4 leukemia): > 100 µM
- TGI (SN12C renal): > 100 µM
- TGI (OVCAR-3 ovarian): > 100 µM
- TGI (HCT-116 colon): > 100 µM
- TGI (UO-31 renal): > 100 µM
- TGI (NCI-H460 lung): > 100 µM
- TGI (OVCAR-5 ovarian): > 100 µM
- TGI (UACC-257 melanoma): > 100 µM
- TGI (K-562 leukemia): > 100 µM
- TGI (M14 melanoma): > 100 µM
- TGI (SNB-19 CNS): 86.3 µM
- TGI (SF-295 CNS): > 100 µM
- TGI (UACC-62 melanoma): > 100 µM
- TGI (OVCAR-4 ovarian): > 100 µM
- TGI (SW-620 colon): > 100 µM
- TGI (OVCAR-8 ovarian): > 100 µM
- TGI (EKVX NSCLC): > 100 µM
- TGI (NCI-H23 lung): > 100 µM
- TGI (LOX IMVI melanoma): > 100 µM
- TGI (786-0 renal): > 100 µM
- TGI (PC-3 prostate): > 100 µM
- TGI (MCF7 breast): > 100 µM
- TGI (RXF 393 renal): 34.3 µM
- TGI (HCC-2998 colon): > 100 µM
- TGI (SK-MEL-2 melanoma): > 100 µM
- TGI (U251 CNS): > 100 µM
- TGI (HS 578T breast): > 100 µM
- TGI (CAKI-1 renal): > 100 µM
- TGI (MDA-MB-231 breast): > 100 µM
- TGI (KM12 colon): > 100 µM
- TGI (ACHN renal): > 100 µM
- TGI (HCT-15 colon): > 100 µM
- TGI (SF-539 CNS): 62.6 µM
- TGI (RPMI-8226 leukemia): > 100 µM
- TGI (SK-MEL-5 melanoma): > 100 µM
- TGI (T-47D breast): > 100 µM
- TGI (NCI/ADR-RES ovarian): > 100 µM

SMILES: COc1cc(CCN)c(OC)c(OC)c1
- TGI (SR leukemia): > 100 µM
- TGI (MDA-N): > 100 µM
- TGI (HL-60(TB) leukemia): > 100 µM
- TGI (HOP-62 NSCLC): > 100 µM
- TGI (MALME-3M melanoma): > 100 µM
- TGI (IGROV1 ovarian): > 100 µM
- TGI (A498 renal): > 100 µM
- TGI (HOP-92 NSCLC): > 100 µM
- TGI (A549 NSCLC): > 100 µM
- TGI (DU-145 prostate): > 100 µM
- TGI (MDA-MB-435): 61.1 µM
- TGI (BT-549 breast): > 100 µM
- TGI (SK-OV-3 ovarian): > 100 µM
- TGI (COLO 205 colon): > 100 µM
- TGI (SK-MEL-28 melanoma): > 100 µM
- TGI (NCI-H522 lung): > 100 µM
- TGI (CCRF-CEM leukemia): > 100 µM
- TGI (TK-10 renal): > 100 µM
- TGI (SF-268 CNS): > 100 µM
- TGI (HT29 colon): > 100 µM
- TGI (SNB-75 CNS): > 100 µM
- TGI (MOLT-4 leukemia): > 100 µM
- TGI (SN12C renal): > 100 µM
- TGI (OVCAR-3 ovarian): > 100 µM
- TGI (HCT-116 colon): > 100 µM
- TGI (UO-31 renal): > 100 µM
- TGI (NCI-H460 lung): > 100 µM
- TGI (OVCAR-5 ovarian): > 100 µM
- TGI (UACC-257 melanoma): > 100 µM
- TGI (K-562 leukemia): > 100 µM
- TGI (M14 melanoma): > 100 µM
- TGI (SNB-19 CNS): > 100 µM
- TGI (SF-295 CNS): > 100 µM
- TGI (UACC-62 melanoma): > 100 µM
- TGI (OVCAR-4 ovarian): > 100 µM
- TGI (SW-620 colon): > 100 µM
- TGI (OVCAR-8 ovarian): > 100 µM
- TGI (EKVX NSCLC): > 100 µM
- TGI (NCI-H23 lung): > 100 µM
- TGI (LOX IMVI melanoma): > 100 µM
- TGI (786-0 renal): > 100 µM
- TGI (PC-3 prostate): > 100 µM
- TGI (MCF7 breast): > 100 µM
- TGI (RXF 393 renal): > 100 µM
- TGI (SK-MEL-2 melanoma): > 100 µM
- TGI (U251 CNS): > 100 µM
- TGI (HS 578T breast): > 100 µM
- TGI (CAKI-1 renal): > 100 µM
- TGI (MDA-MB-231 breast): > 100 µM
- TGI (KM12 colon): > 100 µM
- TGI (ACHN renal): > 100 µM
- TGI (HCT-15 colon): > 100 µM
- TGI (RPMI-8226 leukemia): > 100 µM
- TGI (SK-MEL-5 melanoma): 54.9 µM
- TGI (T-47D breast): > 100 µM
- TGI (NCI/ADR-RES ovarian): > 100 µM
